Measurements reported in patent publication US20250195468A1, “METHODS AND COMPOSITIONS FOR TREATING COLORECTAL CANCER WITH INDOXYL SULFATE” (National Institute of Immunology, priority 2023, published 2025).

Tested on: Balb/c mice
Test: Animal study: effect on normal colonic cells (organ length, body weight, histology, symptoms)
Details: control groups (negative / positive control), 12 weeks
Experimental: Wild-type Balb/c mice were obtained from Jackson Laboratory, USA, and housed in plastic cages with free access to water and food. The mice were randomly assigned to five test groups, which included three control groups: vehicle control, negative control (100 mM sodium propionate), and positive control (AOM (Azoxymethane)/DSS). Additionally, there were two experimental groups receiving 100 mM of indoxyl sulfate, one via intraperitoneal (IP) administration and the other via intrarectal (IR) administration. Each group consisted of six mice. In the AOM/DSS group, AOM was injected intraperitoneally at a dosage of 10 mg/kg bodyweight. The AOM was injected only once on the 1st day of experiment. The positive control mice received 2% DSS for 7 days in the first week, fourth week, and seventh week. […]
The colon was collected from each mouse for subsequent histology studies. […] Various parameters, including tumor localization (proximal or distal bowel, rectum, cecum, ileocecal valve), tumor number, cancer stage (dysplasia/adenoma or adenocarcinoma, determined by infiltration into the muscular mucosa), immune cell infiltration, and inflammation, were assessed. Bowel inflammation was evaluated by observing immune cell infiltration and the presence or absence of mucous membranes using a 10× objective. […]

## CCC(=O)[O-].[Na+] [Propionate, sodium propionate]
  Length of large intestine (mean ± SD): 9.98 ± 0.67 cm
  Length of spleen (mean ± SD): 1.5 ± 0.08 cm
